From paper PMC9603521, “WYBQ-4: a New Bactericidal Agent against Methicillin-Resistant Staphylococcus aureus” (Microbiology Spectrum, 2022)
≈ marks a conversion by molar mass, not a printed value.

Assays:
MSSA 29213 [1] = experiment: Time-kill curve; format: cell-based, Staphylococcus aureus; details: 4× MIC, at 9 h
Procedure: (§1) The bactericidal activities of WYBQ-4 against MSSA 29213 and MRSA USA300 were determined in vitro. Overnight cultures were diluted to 10^6 CFU (CFU)/mL in 10 mL of fresh Mueller-Hinton broth (MHB) medium. […] After incubation at 37°C with shaking for 0 to 24 h, 100-μL samples from each time point were subcultured on MHB agar plates and incubated at 37°C for 24 h. MSSA 29213 and MRSA USA300 without WYBQ-4 were used as control groups. Colony numbers were counted to calculate the CFU, and the data were expressed as log10 CFU. Three biological replicates were performed for the experiment.

MRSA USA300 [2] = experiment: Time-kill curve; format: cell-based, Staphylococcus aureus; details: 8× MIC, at 9 h
Procedure: as §1

clinically isolated MSSA = experiment: MIC against clinical isolates; format: cell-based, Staphylococcus aureus; details: controls moxalactam and cefepime
Procedure: (§2) The clinical strains of MRSA and MSSA isolated in Beijing, Sichuan, and Shanghai in the last 3 years totaled more than 300 strains. Clinical isolates were stored at −80°C in 20% glycerol-rich brain heart infusion (BHI) and passaged twice on Trypticase soy agar prior to the experiment. Before the experiment, 16s RNA identification was performed, and then PCR was used to distinguish MRSA and MSSA by identifying the mecA gene. Furthermore, the MIC of cefoxitin against clinical isolates was tested again. The drug sensitivity results were judged according to the criteria established by the American Society for Clinical Laboratory Standardization. MRSA was determined by a cefoxitin MIC of ≥8 μg/mL ([36]). Finally, 100 strains each of MRSA and MSSA were randomly selected from the identified strains for subsequent experiments. All chemical reagents and antibiotics were purchased from Sigma (St. Louis, MO). S. aureus was grown at 30°C in BHI broth (Oxoid) with constant shaking or on BHI agar plates unless otherwise noted. […]
(§3) The antibacterial spectrum and susceptibility of WYBQ-4 against MRSA USA300, MSSA 29213, and clinically isolated S. aureus were determined using a broth microdilution method following the guidelines outlined by the Clinical and Laboratory Standards Institute (CLSI) ([37], [38]). […] The absorbance was measured at 600 nm, and experiments were repeated in three biological replicates.

clinically isolated MRSA = experiment: MIC against clinical isolates; format: cell-based, Staphylococcus aureus; details: controls moxalactam and cefepime
Procedure: as §2, §3

[3] = system: methicillin-susceptible Staphylococcus epidermidis (MSSE) 35984; experiment: MIC by broth microdilution (CLSI); format: cell-based
MRSA USA300 [4] = experiment: Mouse lung infection model, bacterial load and histopathology; format: in vivo, mice; details: mouse pneumonia
Procedure: The mice were challenged with 1 × 10^8 CFU of MRSA USA300 to assess bacterial load and pathological changes. The dose and manner of administration in mice were consistent with the survival experiments. In addition, the mice treated with ceftaroline fosamil at 75 and 37.5 mg/kg were used as control groups. At 48 h postinfection, mice were euthanized, and the left lungs were aseptically removed, weighed, and homogenized. Then, the lung tissues were homogenized and serially diluted for CFU counts. The right lungs were fixed with 10% formalin, embedded in paraffin, thin-sectioned, subjected to conventional hematoxylin and eosin (H&E) staining, and then observed using an optical microscope.

[5] = system: methicillin-susceptible Staphylococcus aureus (MSSA) 29213; experiment: MIC by broth microdilution (CLSI); format: cell-based
Procedure: as §3

MRSA USA300 [6] = experiment: MIC by broth microdilution (CLSI); format: cell-based; details: Staphylococcus aureus
Procedure: as §3

MSSA 29213 [7] = experiment: Mouse intramuscular (thigh) infection model; format: in vivo; details: MSSA 29213-infected mice; 300 mg/kg subcutaneous; 24 h after infection
Procedure: (§4) The therapeutic effects of WYBQ-4 on thigh infections induced by MRSA USA300 and MSSA 29213 in mice (6-week-old female C57BL/6J mice) were evaluated. […] Mice were infected by intramuscular injection of 0.1 mL of S. aureus culture (5 × 10^5 CFU) into the right thigh. […] Then, 24 h after infection, mice were euthanized, and the right thighs were aseptically removed, weighed, homogenized, and applied to nonresistant BHI plates for CFU counting.

MRSA USA300 [8] = experiment: Mouse intramuscular (thigh) infection model; format: in vivo; details: MRSA USA300-infected mice; 300 mg/kg subcutaneous; 24 h after infection
Procedure: as §4

Enterococcus faecalis = experiment: MIC by broth microdilution (CLSI); format: cell-based; details: compared to that against Staphylococcus
MSSA ATCC 29213 = experiment: Postantibiotic effect (viable plate count); format: cell-based, Staphylococcus aureus; details: 1 h exposure
Procedure: The postantibiotic effect (PAE) of WYBQ-4 against MSSA 29213 was determined in MHB agar using the viable plate count method ([39]). […] After incubation at 37°C for 1 h, WYBQ-4 was removed by centrifugation and washing with phosphate-buffered saline (PBS). Subsequently, fresh MHB medium was added to resuspend the bacteria, and the mixture was incubated at 37°C with shaking. The number of colonies was counted by taking 10 μL of bacteria at 1-h intervals and applying them to BHI agar plates after appropriate dilution. PAE duration was calculated as follows: time (h) for bacteria to return to log-phase growth after drug treatment – time (h) for the control group to return to log-phase growth ([40]).

C#CCO[C@@]1(NC(=O)CSc2cccc(C)c2)C(=O)N2C(C(=O)O)=C(CSc3nnnn3C)CSC21 (some centres unmarked) [WYBQ-4]
time-dependent killing effect (MSSA 29213 [1]): complete sterilization
time-dependent killing effect (MRSA USA300 [2]): complete sterilization
bacteriostatic activity (MIC) versus control drugs (clinically isolated MSSA): better bacteriostatic activity than the control drugs
bacteriostatic activity (MIC) versus control drugs (clinically isolated MRSA): better bacteriostatic activity than the control drugs
MIC [3]: 0.5 µg/mL (≈ 0.915 µM)
bacterial counts in the lung (MRSA USA300 [4]; USA300 1 × 10^8 CFU, 75 mg/kg, 48 h postinfection): 5.44 ± 0.15 log10 CFU/g
inflammatory signs of lung tissue (H&E histopathology) (MRSA USA300 [4]; USA300, after treatment): significantly reduced
MIC [5]: 0.5 µg/mL (≈ 0.915 µM)
MIC (MRSA USA300 [6]): 8 µg/mL (≈ 14.6 µM)
bacterial load in the thighs (MSSA 29213 [7]): 5.21 log10 CFU/g
bacterial load in the thighs (MRSA USA300 [8]): 5.97 log10 CFU/g
antibacterial activity (Enterococcus faecalis): weak
PAE (MSSA ATCC 29213; 2× MIC): 1.5 h
PAE (MSSA ATCC 29213; 8× MIC): 3.5 h
